PubChem BioAssay (NCI)
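Each compound was tested at five concentrations against cells in 96-well plates for 48 hours. TGI is the concentration that stops growth completely.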

How the values were obtained:
Assay in all cases: inhibition of tumour cell growth, NCI panel, 48 h
CCRF-CEM leukemia = test system: CCRF-CEM leukemia
LOX IMVI melanoma = test system: LOX IMVI melanoma
MCF7 breast = test system: MCF7 breast
MDA-N = test system: MDA-N
PC-3 prostate = test system: PC-3 prostate
SK-MEL-2 melanoma = test system: SK-MEL-2 melanoma
SNB-19 CNS = test system: SNB-19 CNS
SR leukemia = test system: SR leukemia
HCC-2998 colon = test system: HCC-2998 colon
MDA-MB-231 breast = test system: MDA-MB-231 breast

O=c1c2cc(S(=O)(=O)O)ccc2nc(COc2ccc(Oc3ccc(Cl)cc3Cl)cc2)n1-c1ccc(Cl)cc1Oc1c(Cl)cccc1Cl
TGI (CCRF-CEM leukemia): > 100 µM | TGI (LOX IMVI melanoma): 32.2 µM | TGI (MCF7 breast): 45.6 µM | TGI (MDA-N): 99.4 µM | TGI (PC-3 prostate): > 100 µM | TGI (SK-MEL-2 melanoma): 35.6 µM | TGI (SNB-19 CNS): > 100 µM | TGI (SR leukemia): 96.7 µM

CC(=O)OCCOCn1cnc2c(Cl)nc(Cl)nc21
TGI (CCRF-CEM leukemia): 23.7 µM | TGI (HCC-2998 colon): 25.6 µM | TGI (LOX IMVI melanoma): 15.8 µM | TGI (MDA-MB-231 breast): 29 µM | TGI (MDA-N): 32.9 µM | TGI (PC-3 prostate): 36.5 µM | TGI (SK-MEL-2 melanoma): 55.6 µM | TGI (SNB-19 CNS): > 100 µM | TGI (SR leukemia): 16.1 µM

Cc1ccc(NC(=S)N/N=C(/c2ccccc2)c2ccccn2)cc1
TGI (HCC-2998 colon): 21 µM | TGI (LOX IMVI melanoma): 14.9 µM | TGI (MCF7 breast): 15.7 µM | TGI (MDA-MB-231 breast): 20.1 µM | TGI (MDA-N): 19.5 µM | TGI (PC-3 prostate): 20.9 µM | TGI (SK-MEL-2 melanoma): 15.1 µM | TGI (SNB-19 CNS): 22.2 µM | TGI (SR leukemia): > 20.5 µM

CC1ON2CCCC2[C@H]1C(=O)N1C2CC3CCC2(CS1(=O)=O)C3(C)C (some centres undefined)
TGI (CCRF-CEM leukemia): > 100 µM | TGI (LOX IMVI melanoma): > 100 µM | TGI (MCF7 breast): > 100 µM | TGI (MDA-MB-231 breast): > 100 µM | TGI (MDA-N): > 100 µM | TGI (PC-3 prostate): > 100 µM | TGI (SK-MEL-2 melanoma): > 100 µM | TGI (SR leukemia): > 100 µM

N#Cc1nc(C2=C(Cl)c3ccccc3OC2)[nH]c1C#N
TGI (CCRF-CEM leukemia): > 100 µM | TGI (HCC-2998 colon): 61.8 µM | TGI (LOX IMVI melanoma): 45.6 µM | TGI (MCF7 breast): 70 µM | TGI (PC-3 prostate): 71.7 µM | TGI (SNB-19 CNS): > 100 µM

C=C1CCC23CC(CC[C@@H]2[C@@]12C[C@@H](c1ccoc1)OC2=O)OC3=O (some centres undefined)
TGI (CCRF-CEM leukemia): > 100 µM | TGI (HCC-2998 colon): > 100 µM | TGI (SK-MEL-2 melanoma): > 100 µM | TGI (SNB-19 CNS): > 100 µM

COc1ccc(-c2cc(=O)c3ccccc3[nH]2)c(OC)c1
TGI (CCRF-CEM leukemia): > 100 µM | TGI (LOX IMVI melanoma): > 100 µM | TGI (SNB-19 CNS): > 100 µM | TGI (SR leukemia): > 100 µM

COc1cc(OC)c2c(=O)c(OC)c(-c3ccc4c(c3)OCO4)oc2c1
TGI (CCRF-CEM leukemia): > 100 µM | TGI (HCC-2998 colon): > 100 µM | TGI (LOX IMVI melanoma): 48.8 µM | TGI (MCF7 breast): > 100 µM | TGI (MDA-MB-231 breast): > 100 µM | TGI (MDA-N): > 100 µM | TGI (PC-3 prostate): > 100 µM | TGI (SK-MEL-2 melanoma): 42.5 µM | TGI (SNB-19 CNS): 62.7 µM

CCOP(=O)(O)C1C(CO)OC(n2ccc(=O)[nH]c2=O)C1O (centres undefined)
TGI (CCRF-CEM leukemia): > 100 µM | TGI (HCC-2998 colon): > 100 µM | TGI (LOX IMVI melanoma): > 100 µM | TGI (MDA-MB-231 breast): > 100 µM | TGI (MDA-N): > 100 µM | TGI (PC-3 prostate): > 100 µM | TGI (SK-MEL-2 melanoma): > 100 µM | TGI (SNB-19 CNS): > 100 µM | TGI (SR leukemia): > 100 µM

COc1ccc(O)c(/C(C)=N/NC(=S)N(C)C)c1
TGI (CCRF-CEM leukemia): > 100 µM | TGI (HCC-2998 colon): > 100 µM | TGI (LOX IMVI melanoma): 22.9 µM | TGI (MDA-MB-231 breast): > 100 µM | TGI (MDA-N): > 100 µM | TGI (PC-3 prostate): > 100 µM | TGI (SK-MEL-2 melanoma): > 100 µM | TGI (SNB-19 CNS): > 100 µM | TGI (SR leukemia): > 100 µM

Cc1[nH]n(C2=NCCN2)c(=O)c1Cc1ccccc1
TGI (CCRF-CEM leukemia): > 100 µM | TGI (LOX IMVI melanoma): > 100 µM | TGI (MCF7 breast): > 100 µM | TGI (MDA-MB-231 breast): > 100 µM | TGI (MDA-N): > 100 µM | TGI (PC-3 prostate): > 100 µM | TGI (SK-MEL-2 melanoma): > 100 µM | TGI (SNB-19 CNS): > 100 µM | TGI (SR leukemia): > 100 µM

CC1(C)CC(=O)C(/C=N/c2nc(-c3ccccc3)cs2)=C(O)C1
TGI (HCC-2998 colon): > 100 µM | TGI (LOX IMVI melanoma): > 100 µM | TGI (MCF7 breast): > 100 µM | TGI (MDA-MB-231 breast): 96.8 µM | TGI (MDA-N): > 100 µM | TGI (PC-3 prostate): > 100 µM | TGI (SK-MEL-2 melanoma): > 100 µM | TGI (SNB-19 CNS): > 100 µM

O=C(N/N=C\c1cccc(O)c1)c1ccncc1
TGI (HCC-2998 colon): > 100 µM | TGI (LOX IMVI melanoma): > 100 µM | TGI (MDA-MB-231 breast): > 100 µM | TGI (MDA-N): > 100 µM | TGI (PC-3 prostate): > 100 µM | TGI (SK-MEL-2 melanoma): > 100 µM | TGI (SNB-19 CNS): > 100 µM | TGI (SR leukemia): > 100 µM

CCNc1cc2c(cc1O)CC[C@@H]1[C@@H]2CC[C@]2(C)[C@@H](O)CC[C@@H]12
TGI (CCRF-CEM leukemia): > 100 µM | TGI (HCC-2998 colon): 7.33 µM | TGI (LOX IMVI melanoma): 20.3 µM | TGI (MCF7 breast): 25 µM | TGI (MDA-MB-231 breast): 24.9 µM | TGI (MDA-N): 2.14 µM | TGI (PC-3 prostate): 22.8 µM | TGI (SNB-19 CNS): > 46.1 µM | TGI (SR leukemia): 41.2 µM

COc1ccc(N2C(=O)c3cc(C)cnc3S2(=O)=O)cc1
TGI (CCRF-CEM leukemia): > 100 µM | TGI (HCC-2998 colon): > 100 µM | TGI (LOX IMVI melanoma): > 100 µM | TGI (MDA-MB-231 breast): > 100 µM | TGI (MDA-N): > 100 µM | TGI (PC-3 prostate): > 100 µM | TGI (SK-MEL-2 melanoma): > 100 µM | TGI (SNB-19 CNS): > 100 µM | TGI (SR leukemia): > 100 µM

CCOC(=O)C(Cc1cn(S(=O)(=O)c2ccccc2)c2ccccc12)(NC(C)=O)C(=O)OCC
TGI (CCRF-CEM leukemia): 72 µM | TGI (HCC-2998 colon): > 100 µM | TGI (SK-MEL-2 melanoma): 80.3 µM | TGI (SNB-19 CNS): > 100 µM | TGI (SR leukemia): 69.8 µM

O=C1C(Cl)C(c2cccc(Cl)c2)N1c1ccc(-n2c(=S)[nH]c3ccccc3c2=O)cc1 (centres undefined)
TGI (CCRF-CEM leukemia): 77.5 µM | TGI (HCC-2998 colon): 37.8 µM | TGI (LOX IMVI melanoma): 42.5 µM | TGI (MCF7 breast): 37.8 µM | TGI (MDA-MB-231 breast): 74.3 µM | TGI (MDA-N): 54.7 µM | TGI (PC-3 prostate): > 100 µM | TGI (SNB-19 CNS): 16.3 µM | TGI (SR leukemia): 30 µM

CCN(CC)CC(=O)O[C@]1(CC)C(=O)OCc2c1cc1n(c2=O)Cc2cc3ccccc3nc2-1
TGI (HCC-2998 colon): 1.28 µM | TGI (LOX IMVI melanoma): 0.177 µM | TGI (MDA-MB-231 breast): 31.3 µM | TGI (MDA-N): 1.58 µM | TGI (PC-3 prostate): > 100 µM | TGI (SK-MEL-2 melanoma): 1.42 µM | TGI (SNB-19 CNS): 11.3 µM

COc1cccc(/C=C2\C(=O)N(C(=O)c3ccc(NC(C)=O)cc3)N=C2C)c1
TGI (CCRF-CEM leukemia): > 100 µM | TGI (HCC-2998 colon): > 100 µM | TGI (LOX IMVI melanoma): > 100 µM | TGI (SK-MEL-2 melanoma): > 100 µM | TGI (SNB-19 CNS): > 100 µM

COC(=O)C1=C(C(=O)OC)c2cc(OC)ccc2C(C(=S)N(C)C)S1 (centres undefined)
TGI (HCC-2998 colon): > 100 µM | TGI (LOX IMVI melanoma): > 100 µM | TGI (MCF7 breast): > 100 µM | TGI (MDA-MB-231 breast): > 100 µM | TGI (MDA-N): > 100 µM | TGI (PC-3 prostate): > 100 µM | TGI (SK-MEL-2 melanoma): > 100 µM | TGI (SNB-19 CNS): > 100 µM | TGI (SR leukemia): > 100 µM

Cc1ccc2c(c1)C1(C)OC(C=CC1=O)O2 (centres undefined)
TGI (CCRF-CEM leukemia): 0.569 µM | TGI (HCC-2998 colon): 8.15 µM | TGI (LOX IMVI melanoma): 1.31 µM | TGI (MCF7 breast): 6.09 µM | TGI (MDA-MB-231 breast): 0.745 µM | TGI (PC-3 prostate): 3.81 µM | TGI (SK-MEL-2 melanoma): 5.85 µM | TGI (SNB-19 CNS): 8.97 µM | TGI (SR leukemia): 1.09 µM

CCOC(=O)C1(C(=O)OCC)C[C@H](C)[C@](C)(O)C1
TGI (CCRF-CEM leukemia): > 100 µM | TGI (LOX IMVI melanoma): > 100 µM | TGI (MCF7 breast): > 100 µM | TGI (MDA-MB-231 breast): > 100 µM | TGI (MDA-N): > 100 µM | TGI (PC-3 prostate): > 100 µM | TGI (SK-MEL-2 melanoma): > 100 µM | TGI (SNB-19 CNS): > 100 µM | TGI (SR leukemia): > 100 µM

O=c1oc2cc(O)ccc2c(O)c1C(c1ccccc1F)c1c(O)c2ccc(O)cc2oc1=O
TGI (HCC-2998 colon): > 100 µM | TGI (LOX IMVI melanoma): > 100 µM | TGI (MCF7 breast): > 100 µM | TGI (MDA-MB-231 breast): > 100 µM | TGI (MDA-N): > 100 µM | TGI (PC-3 prostate): > 100 µM | TGI (SK-MEL-2 melanoma): > 100 µM | TGI (SNB-19 CNS): > 100 µM | TGI (SR leukemia): > 100 µM

C=CCc1cc(-c2cc(CC=C)c(O)c(CNCCCl)c2)cc(CNCCCl)c1O
TGI (CCRF-CEM leukemia): 81.8 µM | TGI (HCC-2998 colon): 31.4 µM | TGI (LOX IMVI melanoma): 31.6 µM | TGI (SK-MEL-2 melanoma): 35.2 µM | TGI (SNB-19 CNS): > 100 µM

N#C/C(N)=C(\C#N)N=CN
TGI (CCRF-CEM leukemia): > 100 µM | TGI (HCC-2998 colon): > 100 µM | TGI (LOX IMVI melanoma): > 100 µM | TGI (MCF7 breast): > 100 µM | TGI (MDA-MB-231 breast): > 100 µM | TGI (MDA-N): > 100 µM | TGI (PC-3 prostate): > 100 µM | TGI (SK-MEL-2 melanoma): > 100 µM | TGI (SR leukemia): > 100 µM
